Results as given in PubChem BioAssay AID328 (DTP/NCI, 2004).
Values joined by “and” are separate entries in the source; they are usually repeats but may differ in a detail not shown here. Equal values may be shown once. Inconclusive results and toxic doses are left out.

System: BDF1 mice, P388 leukemia ip, median survival T/C
Assay: NCI In Vivo Anticancer Drug Screen. Data for tumor model P388 Leukemia (intraperitoneal) in B6D2F1 (BDF1) mice
Details: endpoint: median survival time, higher = longer survival
Outline: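 Vehicle-dosed animals serve as the reference; survival of compound-dosed, tumour-implanted mice is divided by it.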

[1] = dose: 50.0 mg/kg/injection, schedule: Q01DX009 (ip), vehicle: saline
[2] = dose: 100.0 mg/kg/injection, schedule: Q01DX009 (ip), vehicle: saline
[3] = dose: 200.0 mg/kg/injection, schedule: Q01DX009 (ip), vehicle: saline
[4] = dose: 100.0 mg/kg/injection, schedule: Q04DX003 (ip), vehicle: saline
[5] = dose: 100.0 mg/kg/injection, schedule: Q04DX003 (ip), vehicle: saline with Tween-80
[6] = dose: 200.0 mg/kg/injection, schedule: Q04DX003 (ip), vehicle: saline with Tween-80
[7] = dose: 400.0 mg/kg/injection, schedule: Q04DX003 (ip), vehicle: saline with Tween-80
[8] = dose: 25.0 mg/kg/injection, schedule: Q04DX003 (ip), vehicle: saline
[9] = dose: 50.0 mg/kg/injection, schedule: Q04DX003 (ip), vehicle: saline

For COc1ccc(C2C=C(c3ccc4c(c3)OCO4)Oc3c2c(=O)oc2ccccc32)cc1OC (centres undefined), the T/C (dose: 12.5 mg/kg/injection, schedule: Q01DX009 (ip), vehicle: water) was 99 % of control, the T/C (dose: 25.0 mg/kg/injection, schedule: Q01DX009 (ip), vehicle: water) was 94 % of control and the T/C (dose: 25.0 mg/kg/injection, schedule: Q04DX003 (ip), vehicle: water) was 94 % of control. The T/C (dose: 50.0 mg/kg/injection, schedule: Q01DX009 (ip), vehicle: water) was 94 % of control, the T/C (dose: 50.0 mg/kg/injection, schedule: Q04DX003 (ip), vehicle: water) was 101 % of control and the T/C (dose: 100.0 mg/kg/injection, schedule: Q01DX009 (ip), vehicle: water) was 99 % of control. For the same molecule, the T/C (dose: 100.0 mg/kg/injection, schedule: Q04DX003 (ip), vehicle: water) was 97 % of control, the T/C (dose: 200.0 mg/kg/injection, schedule: Q01DX009 (ip), vehicle: water) was 94 % of control and the T/C (dose: 200.0 mg/kg/injection, schedule: Q04DX003 (ip), vehicle: water) was 110 % of control. The T/C (dose: 400.0 mg/kg/injection, schedule: Q04DX003 (ip), vehicle: water) was 106 % of control.
For CN(CC[N+]1(C)CCCC1)P(=O)(N1CCCC1)N1CCCC1, the T/C [1] was 106 % of control, the T/C [2] was 101 % of control and the T/C [3] was 109 % of control.
N#CCCCCNC(=O)C1CCC(=O)N1 (centres undefined) was tested, and the T/C [4] was 111 % of control and the T/C (dose: 400.0 mg/kg/injection, schedule: Q04DX003 (ip), vehicle: saline) was 111 % of control.
For CC/C(=C(\CC)c1ccc(OC)cc1)c1ccc(OC)cc1, the T/C (dose: 50.0 mg/kg/injection, schedule: Q01DX009 (ip), vehicle: saline with Tween-80) was 90 % of control, the T/C (dose: 100.0 mg/kg/injection, schedule: Q01DX009 (ip), vehicle: saline with Tween-80) was 90 % of control and the T/C [5] was 86 % of control. The T/C (dose: 200.0 mg/kg/injection, schedule: Q01DX009 (ip), vehicle: saline with Tween-80) was 90 % of control, the T/C [6] was 90 % of control and the T/C [7] was 95 % of control.
In the case of COc1cc2cc3c4cc5c(cc4cc[n+]3c(C)c2cc1OC)OCO5 (tested in a mixture with another compound), the T/C (dose: 1.46 mg/kg/injection, schedule: Q04DX003 (ip), vehicle: saline) is reported as 117 % of control, the T/C (dose: 16.5 mg/kg/injection, schedule: Q04DX003 (ip), vehicle: saline) is reported as 150 % of control and the T/C [8] is reported as 156 % of control and 159 % of control. For the same molecule, the T/C (dose: 44.0 mg/kg/injection, schedule: Q04DX003 (ip), vehicle: saline) was 168 % of control, the T/C [9] was 160 % of control and the T/C (dose: 66.0 mg/kg/injection, schedule: Q04DX003 (ip), vehicle: saline) was 177 % of control. For the same molecule, the T/C [4] was 163 % of control and 182 % of control.
For C#CC(C)OCC1CNC(=S)O1 (centres undefined), the T/C (dose: 50.0 mg/kg/injection, schedule: Q04DX003 (ip), vehicle: saline with Tween-80) was 110 % of control, the T/C [5] was 100 % of control and the T/C [6] was 115 % of control. For the same molecule, the T/C [7] was 110 % of control.
Cc1nn(-c2ccccc2)c(N)c1C#N was tested, and the T/C (dose: 6.25 mg/kg/injection, schedule: Q01DX009 (ip), vehicle: saline) was 111 % of control, the T/C (dose: 12.5 mg/kg/injection, schedule: Q01DX009 (ip), vehicle: saline) was 94 % of control and the T/C (dose: 12.5 mg/kg/injection, schedule: Q04DX003 (ip), vehicle: saline) was 98 % of control. For the same molecule, the T/C (dose: 25.0 mg/kg/injection, schedule: Q01DX009 (ip), vehicle: saline) was 102 % of control, the T/C (dose: 25.0 mg/kg/injection, schedule: Q04DX003 (ip), vehicle: Klucel (hydroxypropylcellulose) (HPC)) was 98 % of control and the T/C [8] was 163 % of control. For the same molecule, the T/C [1] was 111 % of control, the T/C (dose: 50.0 mg/kg/injection, schedule: Q04DX003 (ip), vehicle: Klucel (hydroxypropylcellulose) (HPC)) was 98 % of control and the T/C [9] was 86 % of control. The T/C [2] was 96 % of control, the T/C (dose: 100.0 mg/kg/injection, schedule: Q04DX003 (ip), vehicle: Klucel (hydroxypropylcellulose) (HPC)) was 121 % of control and the T/C [4] was 87 % of control. The T/C [3] was 111 % of control, the T/C (dose: 200.0 mg/kg/injection, schedule: Q04DX003 (ip), vehicle: Klucel (hydroxypropylcellulose) (HPC)) was 113 % of control and the T/C (dose: 200.0 mg/kg/injection, schedule: Q04DX003 (ip), vehicle: saline) was 269 % of control. For the same molecule, the T/C (dose: 400.0 mg/kg/injection, schedule: Q01DX009 (ip), vehicle: saline) was 105 % of control and the T/C (dose: 400.0 mg/kg/injection, schedule: Q04DX003 (ip), vehicle: Klucel (hydroxypropylcellulose) (HPC)) was 102 % of control.
